Assays:
[1] = test system: Mycobacterium smegmatis NRRL B-14616; test: Growth inhibition in liquid culture; type: cell-based; details: 100 ug ml^-1, R2A, 37° C., 24 hours
Method: (§1) Antibiotic activity for purified PnPs was examined by growth inhibition in liquid cultures. Salmonella typhimurium LT2, Escherichia coli WM6242 (±1 mM IPTG), and Pseudomonas aeruginosa K were grown in M9-glucose. Bacillus subtilis subsp. spizizenii ATCC 6633, Staphylococcus aureus ATCC 25923, and Mycobacterium smegmatis NRRL B-14616 (37° C.) were cultivated in R2A. 96-Well plates containing 150 μL of media was inoculated with 1.5 uL of the appropriate cultures (OD600=0.4-0.5). Kanamycin, aminomethylphosphonate, 1-hydroxy-2-aminoethylphosphonate, (R)-2,3-dihydroxypropylphosphonate, argolaphos A, and argolaphos B were added to a final concentration of 100 ug ml^−1. After growth for 16 hours (24 for M. smegmatis) in a shaking incubator (200 rpm), cell densities recorded on a Tecan microplate reader.

[2] = test system: Escherichia coli WM6242; test: Growth inhibition in liquid culture; type: cell-based; details: upon induction of phosphonate uptake machinery (1 mM IPTG); 100 ug ml^-1
Method: as §1

[3] = Stability in the course of purification; type: physicochemical; details: fraction 2 of S. durhamensis NRRL B-3309 extract
Method: The liquid was concentrated to dryness and dissolved in 200 mL of 0.1% aqueous acetic acid, which was then applied to a 100 mL Fe(III) IMAC gravity column. Before sample loading the column was equilibrated with 0.1% acetic acid. After sample loading, the column was washed successively with 5 volumes of 0.1% acetic acid and 0.1% acetic acid in 20% acetonitrile (ACN). The materials were eluted from the column with 100 mM aqueous NH4HCO3. The eluate (200 mL) from the iron IMAC column was dried with a rotary evaporator as fraction 1. The unabsorbed sample was also dried as fraction 2.

## O=P(O)(O)C[C@H](O)CO [Compound 4, (R)-2,3-dihydroxypropylphosphonic acid]
[1]
  growth inhibition of Mycobacterium smegmatis: slightly inhibited growth

## NCC(O)OP(=O)(O)O (stereo not drawn) [Compound 11, 1-hydroxy-2-aminoethylphosphoric acid]
[2]
  antibiotic activity against E. coli: effective antibiotic

## cyclic 2,3-dihydroxypropanoic acid [Compound 6]
[3]
  stability during purification: unstable and easily decomposed

Source: patent US9993490B2, “Phosphonic acid compounds and screening method” (The Board of Trustees of The University of Illinois, priority 2014, dated 2018)
